The results in this text go back to patent US12552755B2, “Cinnamic amide derivative having FXR activating effect, pharmaceutical composition containing the same as active ingredient, and method for preparing the same” (KYUNGSUNG UNIVERSITY INDUSTRY COOPERATION FOUNDATION, priority 2019, dated 2026).

The target in this assay is T1, farnesol X receptor (FXR) (Homo sapiens, UniProt Q96RI1).
T1 construct: endogenous in cells; host or cells: HepG2
T1 sequence (Q96RI1 1-486): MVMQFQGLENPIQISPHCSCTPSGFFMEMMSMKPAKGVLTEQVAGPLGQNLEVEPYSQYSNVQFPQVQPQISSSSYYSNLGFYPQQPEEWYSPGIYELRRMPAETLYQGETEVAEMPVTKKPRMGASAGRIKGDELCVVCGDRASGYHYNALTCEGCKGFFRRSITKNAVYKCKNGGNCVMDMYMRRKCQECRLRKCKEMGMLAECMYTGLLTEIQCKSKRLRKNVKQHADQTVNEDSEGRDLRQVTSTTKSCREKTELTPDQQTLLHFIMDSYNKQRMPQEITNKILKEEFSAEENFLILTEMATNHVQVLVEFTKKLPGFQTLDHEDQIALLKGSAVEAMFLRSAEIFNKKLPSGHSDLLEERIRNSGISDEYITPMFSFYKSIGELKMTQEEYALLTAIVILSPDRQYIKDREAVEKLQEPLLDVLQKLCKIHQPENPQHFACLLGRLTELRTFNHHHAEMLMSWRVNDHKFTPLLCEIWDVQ
Put plainly: Farnesol X receptor (FXR) reporter gene assay (dual luciferase) in HepG2 cells. The assay is classed as cell-based. As to conditions: for fold induction at 10 µM: HepG2 cells, drug treatment 24 hours, firefly/renilla luciferase ratio, Con = 1.00; for FXR activating effect compared with GW4064: statement on Table 4 data. The protocol:
HepG2 cells were purchased from ATCC (Manassas, VA, USA) and cultured in Dulbecco's modified Eagle's medium (DMEM; Hyclone) containing 10% fetal bovine serum (FBS, Hyclone, Logan, UT, USA), 50 units/mL penicillin (Hyclone) and 50 μg/mL streptomycin (Hyclone). All cells were cultured to have a confluency of about 80% to 90% under the conditions of 37° C. and 5% Co2.
In order to measure FXR transcription factor activity, HepG2 cells (1×10^5 cells/well) were cultured in a 48-well cell culture plate (SPL Life Science Co., Gyeonggido, Korea) for 20 hours and then transduced using Lipofectamin L3000 (Invitrogen, San Diego, CA, USA). Luciferase is an enzyme that catalyzes light-emitting reactions. A plasmid in which the firefly luciferase gene was fused to farnesol X receptor (FXR) and a plasmid in which the renilla luciferase gene was fused to thymidine kinase (TK) were used for transduction. Reacted were 25 μL of serum and antibiotic-free Opti-MEM® (Life Technologies, Grand Island, NY) and 0.5 μL of Lipofectamin L3000 per 0.5 μg of FXR-firefly luciferase plasmid and 10 ng of TK-renilla luciferase plasmid, and the cells were reacted with the reaction mixture for 24 hours. Thereafter, DMEM medium containing 0.1% serum was treated with a drug for 24 hours. After the reaction was completed, the drug-treated culture medium was discarded, and lysis buffer was added at 0.4 ml/well to remove the cells, then the cells were dispensed into a 96-well white plate (SPL Life Science Co.), and the luminescence level was measured using the Dual-glo Luciferase Assay System (Promega, Madison, WI, USA). For the firefly luciferase activity (to see the level of FXR expression) and renilla luciferase activity (to provide a reference value by showing constant expression), the luminescence level was measured using the GloMax Multi Detection System (Promega) and then the relative ratio (firefly luciferase activity/renilla luciferase activity) was calculated.
In general terms: Reporter assays use an easily measured gene product as a stand-in for the process of interest.

In general, fold induction refers to the ratio of treated to control signal. Regarding `COC(=O)CCNC(=O)/C=C/c1ccc(OCc2c(-c3c(Cl)cccc3Cl)noc2C(C)C)cc1` [KS-043, methyl (E)-3-(3-(4-((3-(2,6-dichlorophenyl)-5-isopropylisoxazol-4-yl)methoxy)phenyl)acrylamido)propanoate], the fold induction at 10 µM was 10 and the “FXR activating effect compared with GW4064” value was “superior to GW4064”.

In the case of `COC(=O)CCNC(=O)/C=C/c1ccc(OCc2c(-c3c(Cl)cccc3Cl)noc2C)cc1` [KS-044, methyl (E)-3-(3-(4-((3-(2,6-dichlorophenyl)-5-methylisoxazol-4-yl)methoxy)phenyl)acrylamido)propanoate], the fold induction at 10 µM is 2.21.

With `COC(=O)CCNC(=O)/C=C/c1ccc(OCc2c(-c3ccccc3)noc2C)cc1` [KS-045, methyl (E)-3-(3-(4-((5-methyl-3-phenylisoxazol-4-yl)methoxy)phenyl)acrylamido)propanoate], the fold induction at 10 µM turned out to be 1.2.

As for `CC(C)c1onc(-c2c(Cl)cccc2Cl)c1COc1ccc(/C=C/C(=O)NCCC(=O)O)cc1` [KS-046, (E)-3-(3-(4-((3-(2,6-dichlorophenyl)-5-isopropylisoxazol-4-yl)methoxy)phenyl)acrylamido)propanoic acid], the fold induction at 10 µM was found to be 11.4 and the “FXR activating effect compared with GW4064” value was “superior to GW4064”.

Consider `Cc1onc(-c2c(Cl)cccc2Cl)c1COc1ccc(/C=C/C(=O)NCCC(=O)O)cc1` [KS-047, (E)-3-(3-(4-((3-(2,6-dichlorophenyl)-5-methylisoxazol-4-yl)methoxy)phenyl)acrylamido)propanoic acid], for which the fold induction at 10 µM stood at 3.04.

Consider `Cc1onc(-c2ccccc2)c1COc1ccc(/C=C/C(=O)NCCC(=O)O)cc1` [KS-048, (E)-3-(3-(4-((5-methyl-3-phenylisoxazol-4-yl)methoxy)phenyl)acrylamido)propanoic acid], for which the fold induction at 10 µM is 1.13.

For the compound `COC(=O)[C@@H](C)NC(=O)/C=C/c1ccc(OCc2c(-c3c(Cl)cccc3Cl)noc2C(C)C)cc1` [KS-049, methyl (E)-(3-(4-((3-(2,6-dichlorophenyl)-5-isopropylisoxazol-4-yl)methoxy)phenyl)acryloyl)-D-alaninate], the fold induction at 10 µM came out at 9.55 and the “FXR activating effect compared with GW4064” value was “superior to GW4064”.

With `COC(=O)[C@@H](C)NC(=O)/C=C/c1ccc(OCc2c(-c3c(Cl)cccc3Cl)noc2C)cc1` [KS-050, methyl (E)-(3-(4-((3-(2,6-dichlorophenyl)-5-methylisoxazol-4-yl)methoxy)phenyl)acryloyl)-D-alaninate], the fold induction at 10 µM is 2.

As for `COC(=O)[C@@H](C)NC(=O)/C=C/c1ccc(OCc2c(-c3ccccc3)noc2C)cc1` [KS-051, methyl (E)-(3-(4-((5-methyl-3-phenylisoxazol-4-yl)methoxy)phenyl)acryloyl)-D-alaninate], the fold induction at 10 µM is 1.34.

As for `CC(C)c1onc(-c2c(Cl)cccc2Cl)c1COc1ccc(/C=C/C(=O)N[C@H](C)C(=O)O)cc1` [KS-052, (E)-(3-(4-((3-(2,6-dichlorophenyl)-5-isopropylisoxazol-4-yl)methoxy)phenyl)acryloyl)-D-alanine], the fold induction at 10 µM amounted to 8.12 and the “FXR activating effect compared with GW4064” value was “superior to GW4064”.

Regarding `Cc1onc(-c2c(Cl)cccc2Cl)c1COc1ccc(/C=C/C(=O)N[C@H](C)C(=O)O)cc1` [KS-053, (E)-(3-(4-((3-(2,6-dichlorophenyl)-5-methylisoxazol-4-yl)methoxy)phenyl)acryloyl)-D-alanine], the fold induction at 10 µM stood at 1.28.

For `Cc1onc(-c2ccccc2)c1COc1ccc(/C=C/C(=O)N[C@H](C)C(=O)O)cc1` [KS-054, (E)-(3-(4-((5-methyl-3-phenylisoxazol-4-yl)methoxy)phenyl)acryloyl)-D-alanine], the fold induction at 10 µM turned out to be 0.9.
